{"source": "patent US20210267939A1", "about": "“COMPOSITIONS AND METHODS FOR TREATING NAFLD/NASH AND RELATED DISEASE PHENOTYPES” (priority 2018, published 2021)", "assay_type_in_all_cases": "in vivo", "key": {"Zucker fatty rats [1]": {"tested_on": "Zucker fatty rats", "assay": "Liver triacylglyceride content in treated Zucker fatty rats", "conditions": "ZFR, BT2 20 mg/kg i.p. daily for one week, vs vehicle", "method": "(§1) Individually housed, male 12 week-old Zucker fatty rats (ZFR, Charles River Laboratories) maintained on a custom control low fat (LF) diet (A11072001, Research Diets) were used for the BDK inhibition and PPM1K overexpression studies. For the BDK inhibition study, ZFR were administered the small molecule BDK inhibitor 3,6-dichlorobenzo[b]thiophene-2-carboxylic acid (BT2, Sigma) daily at a dose of 20 mg/kg dissolved in 200 ul of sterile dimethylsulfoxide by i.p. injection for 7 days. The control group was administered an equal volume of vehicle each day. […]\n(§2) Plasma concentrations of the alpha-keto acids of leucine (α-keto-isocaproate, KIC), isoleucine (α-keto-β-methylvalerate, KMV) and valine (α-keto-isovalerate, KIV) were measured by LC-MS as previously described (Glynn et al., 2015; White et al., 2016). Other plasma analytes were measured on a Beckman DxC600 autoanalyzer, using reagents for lactate, total cholesterol, and triglycerides from Beckman, and non-esterified fatty acids (NEFA) and ketones (total and 3-hydroxybutyrate) from Wako (Richmond, Va.). Glycerol was measured using reagents from TG-B by Roche Diagnostics (Indianapolis, Ind.). Liver triglycerides were quantified using the triglyceride quantification kit from Abcam. Plasma insulin concentrations were measured with a Millipore EMD Rat insulin ELISA kit."}, "ATP citrate lyase (ACL)": {"tested_on": "ATP citrate lyase (ACL)", "assay": "Immunoblot of phospho-ser454 and total ACL in liver of treated Zucker fatty rats", "conditions": "ZFR, BT2 vs vehicle", "method": "(§3) Individually housed, male 12 week-old Zucker fatty rats (ZFR, Charles River Laboratories) maintained on a custom control low fat (LF) diet (A11072001, Research Diets) were used for the BDK inhibition and PPM1K overexpression studies. For the BDK inhibition study, ZFR were administered the small molecule BDK inhibitor 3,6-dichlorobenzo[b]thiophene-2-carboxylic acid (BT2, Sigma) daily at a dose of 20 mg/kg dissolved in 200 ul of sterile dimethylsulfoxide by i.p. injection for 7 days. The control group was administered an equal volume of vehicle each day. On day 6, following an overnight fast, ZFR were subjected to a 1 g/kg i.p. glucose tolerance test (GTT) precisely 1 hr after administration of BT2 (20 mg/kg i.p.) or vehicle. The glucose tolerance test was performed as described (White, et al., 2016). Following the GTT, rats were returned to their normal cages and provided free access to food and water. Indirect calorimetry was performed in a second cohort of BT2 treated rats on day 6 of BT2 administration. […]\nImmunoblotting: Tissue lysates used for immunoblotting were prepared in Cell Lysis Buffer (Cell Signaling Technologies) containing protease inhibitor tablets (Roche), phosphatase inhibitor cocktails 2 and 3 (Sigma), and 10 mM PMSF. […] Immunoblots were developed using a Li-Cor Odyssey CLx and quantified using the Li-Cor software."}, "Zucker fatty rats [2]": {"tested_on": "Zucker fatty rats", "assay": "Other plasma analytes (lactate, lipids, ketones) in treated Zucker fatty rats", "conditions": "ZFR, BT2 20 mg/kg i.p. daily for one week, vs vehicle", "method": "as §1, §2"}, "Zucker fatty rats [3]": {"tested_on": "Zucker fatty rats", "assay": "Tissue acylcarnitine profiling in treated Zucker fatty rats", "conditions": "ZFR, BT2 20 mg/kg i.p. daily for one week, vs vehicle", "method": "as §3, with “administration. Here ad-libitum fed rats were injected with BT2 (20 mg/kg i.p.) or vehicle immediately prior to being placed in an eight-chamber Oxymax system (Columbus Instruments) for seven hours. During their time in the metabolic cages all rats had free access to food and water.” for “administration.”\nMetabolite profiling: Amino acids were measured in plasma and liver samples, and acylcarnitines in liver samples. […]"}}}
{"smiles": "O=C(O)c1sc2cc(Cl)ccc2c1Cl", "note": "[BT2, 3,6-dichlorobenzo[b]thiophene-2-carboxylic acid]", "values": [{"measurement": "hepatic TG levels", "setting": "Zucker fatty rats [1]", "value": "significantly lower"}, {"measurement": "ACL phosphorylation on ser454, immunoblot of liver lysates", "setting": "ATP citrate lyase (ACL)", "value": "markedly less"}, {"measurement": "abundance of total ACL protein in liver", "setting": "ATP citrate lyase (ACL)", "value": "trend for lower abundance"}, {"measurement": "circulating TG, cholesterol, glycerol, non-esterified fatty acids (NEFA), or ketones", "setting": "Zucker fatty rats [2]", "value": "no effects"}, {"measurement": "lactate in circulation", "setting": "Zucker fatty rats [2]", "value": "lower levels"}, {"measurement": "even chain acyl-carnitines in liver", "setting": "Zucker fatty rats [3]", "value": "increases"}, {"measurement": "even chain acyl-carnitines in skeletal muscle", "setting": "Zucker fatty rats [3]", "value": "but not in skeletal muscle"}]}
